These compounds were tested on Phospholipidosis (assay: Literature-mined public compounds from Kruhlak et al phospholipidosis modelling dataset).

Question: With `CC[C@H]1OC(=O)[C@H](C)[C@@H](O[C@H]2C[C@@](C)(OC)[C@@H](O)[C@H](C)O2)[C@H](C)[C@@H](O[C@@H]2O[C@H](C)C[C@H](N(C)C)[C@H]2O)[C@](C)(O)C[C@@H](C)CN(C)[C@H](C)[C@@H](O)[C@]1(C)O` [AZITHROMYCIN] as the compound, how does the Phospholipidosis read?
Answer: Positive: weak inducer based on presence of foamy macrophages and cytoplasmic vacuolations

Question: `CCC1(CC)C(=O)NC(=O)NC1=O` [BARBITAL] was tested. Which Phospholipidosis did it give?
Answer: Negative: based on the absence of positive reported data from WMDD

Question: Which Phospholipidosis does the source give for `NC[C@H]1O[C@H](O[C@H]2[C@H](O)[C@@H](O[C@H]3O[C@H](CO)[C@@H](O)[C@H](N)[C@H]3O)[C@H](N)C[C@@H]2N)[C@H](N)[C@@H](O)[C@@H]1O` [BEKANAMYCIN] here?
Answer: Negative: based on the absence of positive reported data from WMDD

Question: How did the Phospholipidosis turn out when `NS(=O)(=O)c1cc2c(cc1C(F)(F)F)NC(Cc1ccccc1)NS2(=O)=O` (stereo unspecified) [BENDROFLUMETHIAZIDE] was run?
Answer: Negative: based on the absence of positive reported data from WMDD

Question: For `CC(=O)Nc1ccc(OC(=O)c2ccccc2OC(C)=O)cc1` [BENORILATE], which Phospholipidosis is on record?
Answer: Negative: based on the absence of positive reported data from WMDD

Question: Which Phospholipidosis does the source give for `NC(=O)c1ccccc1` [BENZAMIDE] here?
Answer: Positive: weak inducer based on presence of foamy macrophages and cytoplasmic vacuolations

Question: Which Phospholipidosis does the source give for `CCN(CC)C(=O)C1CN2CCc3cc(OC)c(OC)cc3C2CC1OC(C)=O` (stereo unspecified) [BENZQUINAMIDE] here?
Answer: Negative: based on the absence of positive reported data from WMDD

Question: `CN1[C@@H]2CC[C@H]1C[C@@H](OC(c1ccccc1)c1ccccc1)C2` [BENZTROPINE] was tested. Which Phospholipidosis did it give?
Answer: Negative: based on the absence of positive reported data from WMDD

Question: Which Phospholipidosis does the source give for `OCc1ccccc1` [BENZYL ALCOHOL] here?
Answer: Negative: based on the absence of positive reported data from WMDD

Question: For `C[N+](C)(CCOc1ccccc1)Cc1ccccc1.O=C([O-])c1cc2ccccc2cc1O` [BEPHENIUM HYDROXYNAPHTHOATE], which Phospholipidosis is on record?
Answer: Negative: based on the absence of positive reported data from WMDD

Question: `CC(C)COCC(CN(Cc1ccccc1)c1ccccc1)N1CCCC1` (stereo unspecified) [BEPRIDIL] was tested. Which Phospholipidosis did it give?
Answer: Negative: based on the absence of positive reported data from WMDD

Question: `CC1=C(/C=C/C(C)=C/C=C/C(C)=C/C=C/C=C(C)/C=C/C=C(C)/C=C/C2=C(C)CCCC2(C)C)C(C)(C)CCC1` [BETA CAROTENE] was tested. Which Phospholipidosis did it give?
Answer: Negative: based on the absence of positive reported data from WMDD

Question: Which Phospholipidosis does the source give for `C[N+](C)(C)CC(=O)O` [BETAINE] here?
Answer: Negative: based on the absence of positive reported data from WMDD

Question: `CC(=O)OCC(=O)[C@@]1(O)[C@@H](C)C[C@H]2[C@@H]3CCC4=CC(=O)C=C[C@]4(C)[C@@]3(F)[C@@H](O)C[C@@]21C` [BETAMETHASONE ACETATE] was tested. Which Phospholipidosis did it give?
Answer: Negative: based on the absence of positive reported data from WMDD

Question: How did the Phospholipidosis turn out when `CC(=O)OCC(=O)[C@@]1(OC(=O)C(C)C)[C@@H](C)C[C@H]2[C@@H]3CCC4=CC(=O)C=C[C@]4(C)[C@@]3(F)[C@@H](O)C[C@@]21C` [BETAMETHASONE ACIBUTATE] was run?
Answer: Negative: based on the absence of positive reported data from WMDD

Question: With `CC(C)NCC(O)COc1ccc(CCOCC2CC2)cc1` (stereo unspecified) [BETAXOLOL] as the compound, how does the Phospholipidosis read?
Answer: Negative: based on the absence of positive reported data from WMDD

Question: How did the Phospholipidosis turn out when `C/N=C(\NC)NCc1ccccc1` [BETHANIDINE] was run?
Answer: Negative: based on the absence of positive reported data from WMDD

Question: How did the Phospholipidosis turn out when `C=CC1=C(C)/C(=C/c2[nH]c(Cc3[nH]c(/C=C4\NC(=O)C(C)=C4C=C)c(C)c3CCC(=O)O)c(CCC(=O)O)c2C)NC1=O` [BILIRUBIN] was run?
Answer: Positive: strong inducer confirmed by electron microscopy

Question: For `CC(=O)Oc1ccc(C(c2ccc(OC(C)=O)cc2)c2ccccn2)cc1` [BISACODYL], which Phospholipidosis is on record?
Answer: Negative: based on the absence of positive reported data from WMDD

Question: Which Phospholipidosis does the source give for `FC(F)(F)c1ccc(-c2ccc(OCCN3CCCC3)cc2)cc1` [BOXIDINE] here?
Answer: Positive: strong inducer confirmed by electron microscopy

Question: How did the Phospholipidosis turn out when `CC[N+](C)(C)Cc1ccccc1Br.Cc1ccc(S(=O)(=O)[O-])cc1` [BRETYLIUM TOSYLATE] was run?
Answer: Negative: based on the absence of positive reported data from WMDD

Question: How did the Phospholipidosis turn out when `CN(Cc1cc(Br)cc(Br)c1N)C1CCCCC1` [BROMHEXINE] was run?
Answer: Positive: weak inducer based on presence of foamy macrophages and cytoplasmic vacuolations

Question: For `O=S(=O)(O)c1ccc(/N=N/c2cc(CO)c(O)c(/N=N/c3ccc(S(=O)(=O)O)c4ccccc34)c2O)c2ccccc12` [BROWN HT], which Phospholipidosis is on record?
Answer: Negative: based on the absence of positive reported data from WMDD

Question: For `CC(C)(C)c1ccc(CN2CCN(C(c3ccccc3)c3ccc(Cl)cc3)CC2)cc1` (stereo unspecified) [BUCLIZINE], which Phospholipidosis is on record?
Answer: Negative: based on the absence of positive reported data from WMDD

Question: How did the Phospholipidosis turn out when `O=C(O)CCC(=O)c1ccc(C2CCCCC2)c(Cl)c1` [BUCLOXIC ACID] was run?
Answer: Negative: based on the absence of positive reported data from WMDD

Question: With `CC(C)(C)NCC(O)COc1ccccc1C#N` (stereo unspecified) [BUNITROLOL] as the compound, how does the Phospholipidosis read?
Answer: Negative: based on the absence of positive reported data from WMDD

Question: `Cc1ccc(Cl)c(OCC(O)CNC(C)(C)C)c1` (stereo unspecified) [BUPRANOLOL] was tested. Which Phospholipidosis did it give?
Answer: Negative: based on the absence of positive reported data from WMDD

Question: `O=C1CC2(CCCC2)CC(=O)N1CCCCN1CCN(c2ncccn2)CC1` [BUSPIRONE] was tested. Which Phospholipidosis did it give?
Answer: Negative: confirmed by electron microscopy

Question: Which Phospholipidosis does the source give for `CCCCN(CCCC)CCNc1nc(-c2ccccc2)no1` [BUTALAMINE] here?
Answer: Negative: based on the absence of positive reported data from WMDD

Question: For `C=CCC1(CC(C)C)C(=O)NC(=O)NC1=O` [BUTALBITAL], which Phospholipidosis is on record?
Answer: Negative: based on the absence of positive reported data from WMDD

Question: `CCCC(=O)c1ccc2c(c1)N(CCCN1CCN(C)CC1)c1ccccc1S2` [BUTAPERAZINE] was tested. Which Phospholipidosis did it give?
Answer: Negative: based on the absence of positive reported data from WMDD

Question: How did the Phospholipidosis turn out when `Oc1ccc2c(c1)[C@@]13CCCC[C@@]1(O)[C@@H](C2)N(CC1CCC1)CC3` [BUTORPHANOL] was run?
Answer: Negative: based on the absence of positive reported data from WMDD

Question: Which Phospholipidosis does the source give for `Cn1c(=O)c2c(ncn2C)n(C)c1=O` [CAFFEINE] here?
Answer: Negative: confirmed by electron microscopy

Question: With `C=C1/C(=C\C=C2/CCC[C@]3(C)[C@@H]([C@H](C)CCCC(C)(C)O)CC[C@@H]23)C[C@@H](O)C[C@@H]1O` [CALCITRIOL] as the compound, how does the Phospholipidosis read?
Answer: Negative: based on the absence of positive reported data from WMDD

Question: With `NC(=O)N1c2ccccc2C=Cc2ccccc21` [CARBAMAZEPINE] as the compound, how does the Phospholipidosis read?
Answer: Negative: confirmed by electron microscopy

Question: Which Phospholipidosis does the source give for `CN1CC(O)C2=C/C(=N/NC(N)=O)C(=O)C=C21` (stereo unspecified) [CARBAZOCHROME] here?
Answer: Negative: based on the absence of positive reported data from WMDD

Question: `CN(C)CCOC(c1ccc(Cl)cc1)c1ccccn1` (stereo unspecified) [CARBINOXAMINE] was tested. Which Phospholipidosis did it give?
Answer: Negative: based on the absence of positive reported data from WMDD

Question: Which Phospholipidosis does the source give for `N[C@@H](CSCC(=O)O)C(=O)O` [CARBOCYSTEINE] here?
Answer: Negative: based on the absence of positive reported data from WMDD

Question: With `CCC(Br)(CC)C(=O)NC(N)=O` [CARBROMAL] as the compound, how does the Phospholipidosis read?
Answer: Negative: based on the absence of positive reported data from WMDD

Question: `CCCCNC(=O)NS(=O)(=O)c1ccc(N)cc1` [CARBUTAMIDE] was tested. Which Phospholipidosis did it give?
Answer: Negative: based on the absence of positive reported data from WMDD

Question: For `O=NN(CCCl)C(=O)NCCCl` [CARMUSTINE], which Phospholipidosis is on record?
Answer: Negative: based on the absence of positive reported data from WMDD

Source: ChEMBL document CHEMBL1697821, “Development of a phospholipidosis database and predictive quantitative structure-activity relationship (QSAR) models” (Toxicol Mech Methods, 2008)
